Read-outs that look alike come from different tables or passages of the source.
What was measured:
Experiment in all cases: MTT cancer cell growth inhibition
Assay type in all cases: cell-based
[1] = tested on: SGC-7901 (human gastric cancer cells); conditions: Homo sapiens, SGC-7901, 72 h, MTT, 72 hours incubation, SGC-7901 cells; read-out: GI50 SGC-7901
In short: (§1)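 Read-out was formazan absorbance at 570 nm after a 4 h MTT step and DMSO solubilisation, converted to cell viability and fitted for GI50. Beforehand, cells (1500/well, overnight attachment) were treated with compound at 10^−5 to 10^−10 M for 72 h at 37° C.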

[2] = tested on: KBM5-T315I (human chronic myelogenous leukemia); conditions: Homo sapiens, 72 h, MTT, 72 hours incubation, KBM5-T315I cells; read-out: GI50 KBM5-T315I
In short: as §1

[3] = tested on: KBM-5 (human chronic myelogenous leukemia); conditions: Homo sapiens, KBM5, 72 h, MTT, 72 hours incubation, KBM-5 cells; read-out: GI50 KBM-5
In short: as §1

[4] = tested on: H1975 (non-small cell lung adenocarcinoma); conditions: Homo sapiens, NCI-H1975, 72 h, MTT, 72 hours incubation, H1975 cells; read-out: GI50 H1975
In short: as §1

[5] = tested on: MDA-MB-231 (breast cancer cells); conditions: Homo sapiens, MDA-MB-231, 72 h, read-out: GI50 MDA-MB-231, MTT, 72 hours incubation, MDA-MB-231 cells
In short: as §1

[6] = tested on: Hela (human cervical cancer cells); conditions: Homo sapiens, HeLa, 72 h, MTT
In short: as §1

[7] = tested on: Huh-7 (human hepatoma cells); conditions: Homo sapiens, Huh-7, 72 h, MTT, 72 hours incubation, Huh-7 cells; read-out: GI50 Huh-7
In short: as §1

[8] = tested on: BGC-823 (human gastric cancer cells); conditions: Homo sapiens, BGC-823, 72 h, MTT
In short: as §1

[9] = tested on: MCF-7 (human breast cancer cells); conditions: Homo sapiens, MCF7, 72 h
In short: as §1

[10] = tested on: A549 (human lung cancer cells); conditions: Homo sapiens, A549, 72 h, MTT, 72 hours incubation; read-out: GI50 A54
In short: as §1

[11] = tested on: PANC-1 (Pac-1, human pancreatic cancer cells); conditions: MTT
In short: as §1

[12] = tested on: lncap (prostate cancer cells); conditions: Homo sapiens, LNCaP, 72 h, MTT
In short: as §1

[13] = tested on: U937 (human leukemia cells); conditions: Homo sapiens, U-937, 72 h, MTT
In short: as §1

[14] = tested on: DU145 (human prostate cancer cells); conditions: Homo sapiens, DU-145, 72 h, MTT
In short: as §1

[15] = tested on: MOLT-4 (human acute lymphoblastic leukemia cells); conditions: Homo sapiens, MOLT-4, 72 h, MTT, 72 hours incubation; read-out: GI50 Mol
In short: as §1

[16] = 72 hours incubation, read-out: GI50 Hela
[17] = 72 hours incubation, read-out: GI50 BG
[18] = 72 hours incubation, read-out: GI50 MCF
[19] = Homo sapiens, PANC-1, 72 h, 72 hours incubation, read-out: GI50 PAN
[20] = 72 hours incubation, read-out: GI50 lnca
[21] = 72 hours incubation, read-out: GI50 Du1
[22] = 72 hours incubation, read-out: GI50 U93

| GI50 [1] [nM] | GI50 [2] [nM] | GI50 [3] [nM] | GI50 [4] [nM] | GI50 [5] [nM] | GI50 [6, 16] [nM] | GI50 [7] [nM] | GI50 [8, 17] [nM] | GI50 [9, 18] [nM] | GI50 [10] [nM] | GI50 [11, 19] [nM] | GI50 [12, 20] [nM] | GI50 [14, 21] [nM] | GI50 [15] [nM] | GI50 [13, 22] [nM] | Compound | other results |
| --- | --- | --- | --- | --- | --- | --- | --- | --- | --- | --- | --- | --- | --- | --- | --- | --- |
| 51 | 41 | 61 | 13 | 84 | 60 | 58 | 70 | 60 | 60 | 60 | – | – | – | – | C/C=C1\NC(=O)c2cccc(n2)CNC(=O)C[C@@H](/C=C/CCSC(=O)CC)OC(=O)[C@H](C(C)C)NC1=O [Compound 6] | – |
| 53 | 46 | 37 | 122 | 95 | 20 | 33 | 60 | 30 | 10 | 20 | – | – | – | – | C/C=C1\NC(=O)c2cccc(n2)CNC(=O)C[C@@H](/C=C/CCSC(=O)CCCCCCC)OC(=O)[C@H](C(C)C)NC1=O [Compound 1] | GI50 ([6]; 72 hours, present invention, read-out: GI50 Hela, a): 20 nM; GI50 ([8]; 72 hours, present invention, read-out: GI50 BGC823, a): 60 nM; GI50 ([9]; 72 hours, present invention, read-out: GI50 MCF7, a): 30 nM; GI50 ([12]; 72 hours, present invention, read-out: GI50 lncap, a): 9 nM; GI50 ([13]; 72 hours, present invention, read-out: GI50 U937, a): 5 nM; GI50 ([11]; 72 hours, present invention, read-out: GI50 PANC-1, a): 320 nM; GI50 ([14]; 72 hours, present invention, read-out: GI50 Du145, a): 4 nM |
| 23 | 24 | 61 | 24 | 98 | 70 | 51 | 90 | 60 | 60 | 80 | – | – | – | – | C/C=C1\NC(=O)c2cccc(n2)CNC(=O)C[C@@H](/C=C/CCSC(C)=O)OC(=O)[C@H](CC)NC1=O [Compound 10] | – |
| 18 | 35 | 68 | 37 | 86 | 500 | 51 | 220 | 50 | 100 | 220 | 30 | 20 | 490 | – | C/C=C1\NC(=O)c2nccc(n2)CNC(=O)C[C@@H](/C=C/CCSC(C)=O)OC(=O)[C@H](C)NC1=O [Example 24] | – |
| 52 | 54 | 81 | 62 | 36 | 80 | 36 | 30 | 50 | 50 | – | 30 | 50 | 30 | 60 | C/C=C1\NC(=O)c2cc(F)cc(n2)CNC(=O)C[C@@H](/C=C/CCSC(=O)CCC)OC(=O)[C@H](C(C)C)NC1=O [Compound 43] | – |
| 34 | 22 | 74 | 31 | 86 | 50 | 86 | 60 | 40 | 50 | 60 | – | – | – | – | C/C=C1\NC(=O)c2cccc(n2)CNC(=O)C[C@@H](/C=C/CCSC(=O)CCCC)OC(=O)[C@H](C(C)C)NC1=O [Compound 4] | – |
| 52 | 24 | 53 | 24 | 95 | 60 | 92 | 90 | 80 | 90 | 600 | 580 | – | 1900 | – | C=C1NC(=O)c2cccc(n2)CNC(=O)C[C@@H](/C=C/CCSC(C)=O)OC(=O)[C@H](C(C)C)NC1=O [Compound 19] | – |
| 35 | 23 | 33 | 73 | 56 | 40 | 65 | – | 50 | 30 | – | 40 | 50 | 80 | 30 | C/C=C1\NC(=O)c2cccc(n2)CCNC(=O)C[C@@H](/C=C/CCS)OC(=O)[C@H](C(C)C)NC1=O [Compound 146] | – |
| 43 | 33 | 72 | 23 | 82 | 50 | 72 | 60 | 40 | 50 | 60 | – | – | – | – | C/C=C1\NC(=O)c2cccc(n2)CNC(=O)C[C@@H](/C=C/CCSC(=O)CCC)OC(=O)[C@H](C(C)C)NC1=O [Compound 5] | – |
| 43 | 37 | 93 | 62 | 36 | 90 | 36 | 50 | 30 | 40 | – | 30 | 50 | 30 | 60 | C/C=C1\NC(=O)c2cc(F)cc(n2)CNC(=O)C[C@@H](/C=C/CCSC(=O)CCCCCCC)OC(=O)[C@H](Cc2ccccc2)NC1=O [Compound 70] | – |
| 36 | 31 | 72 | 41 | 84 | 50 | 86 | 90 | 60 | 70 | 80 | – | – | – | – | C/C=C1\NC(=O)c2cccc(n2)CNC(=O)C[C@@H](/C=C/CCSC(C)=O)OC(=O)[C@H](C)NC1=O [Compound 12] | – |
| 37 | 31 | – | 31 | 98 | 37000 | 51 | 5400 | 53700 | 38900 | 770 | 9000 | 11700 | 3350 | 9500 | C/C=C1\NC(=O)c2cccc(n2)CCNC(=O)C[C@@H](/C=C/CCSC(C)=O)OC(=O)[C@H](C(C)C)NC1=O [Example 26] | – |
| 43 | 63 | 51 | 38 | 93 | 70 | 61 | 90 | 80 | 80 | 80 | – | – | – | – | C/C=C1\NC(=O)c2cccc(n2)CNC(=O)C[C@@H](/C=C/CCSC=O)OC(=O)[C@H](C(C)C)NC1=O [Compound 8] | – |

Source: patent publication US10065990B2, “Cyclic peptide compound, and preparation method, pharmaceutical composition and use thereof” (HANGZHOU GUANYU BIO-MEDICAL CO., LTD, priority 2013, dated 2018)
